Measured values from paper PMC3733398 (ACS medicinal chemistry letters, 2013).
In brackets after ≈: the same amount, converted by molar mass. Several values for one entry are separate records, joined by “and”; a condition that tells them apart may be missing. Identical values can stand only once.

Columns and labels:
Mtb H37Rv = experiment: MIC against replicating Mtb H37Rv, dual read-out; assay type: cell-based; conditions: Mycobacterium tuberculosis
[1] = tested on: DS-Mtb1 (drug sensitive clinical isolate #1); experiment: MIC against clinical strain DS-Mtb1; assay type: cell-based; conditions: Mycobacterium tuberculosis
[2] = tested on: DS-Mtb2 (drug sensitive clinical isolate #2); experiment: MIC against clinical strain DS-Mtb2; assay type: cell-based; conditions: Mycobacterium tuberculosis, 90% growth inhibition by optical density
MDR-Mtb HREZSKP = experiment: microbe, parasite or virus in culture; assay type: cell-based; conditions: Mycobacterium tuberculosis
MDR-Mtb HREKP = experiment: microbe, parasite or virus in culture; assay type: cell-based; conditions: Mycobacterium tuberculosis
MDR-Mtb HRERb = experiment: microbe, parasite or virus in culture; assay type: cell-based; conditions: Mycobacterium tuberculosis
XDR-Mtb HRESKO = experiment: microbe, parasite or virus in culture; assay type: cell-based; conditions: Mycobacterium tuberculosis
XDR-Mtb HREKO = experiment: microbe, parasite or virus in culture; assay type: cell-based; conditions: Mycobacterium tuberculosis
[3] = tested on: sensitive, MDR and XDR clinical Mtb strains; assay type: cell-based, Mycobacterium tuberculosis; conditions: range over the DS, MDR and XDR clinical strains of Table 2
CYP3A4 [4] = biological target: T1, CYP3A4 (Homo sapiens, UniProt P08684); experiment: Time dependent inhibition of human CYP3A4; conditions: at 10 μM
T1 sequence (P08684 whole entry): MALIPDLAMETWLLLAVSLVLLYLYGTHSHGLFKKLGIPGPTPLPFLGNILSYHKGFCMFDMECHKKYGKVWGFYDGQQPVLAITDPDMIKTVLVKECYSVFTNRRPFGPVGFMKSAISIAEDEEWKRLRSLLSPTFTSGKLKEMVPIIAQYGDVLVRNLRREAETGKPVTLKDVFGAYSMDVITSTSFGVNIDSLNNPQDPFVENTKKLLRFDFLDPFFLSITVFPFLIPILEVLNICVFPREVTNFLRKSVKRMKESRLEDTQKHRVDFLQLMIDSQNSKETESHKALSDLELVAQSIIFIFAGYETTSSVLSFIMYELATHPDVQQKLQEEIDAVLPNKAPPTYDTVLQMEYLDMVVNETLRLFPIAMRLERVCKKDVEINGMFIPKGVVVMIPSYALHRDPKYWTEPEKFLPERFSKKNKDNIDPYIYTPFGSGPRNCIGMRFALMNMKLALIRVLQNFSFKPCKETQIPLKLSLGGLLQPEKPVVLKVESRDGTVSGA

in vivo = conditions: rat, iv, 1 mg/kg
in vitro = in vitro ADME
[5] = rat, microsomes
CYP3A4 [6] = biological target: T1, CYP3A4; experiment: Human cytochrome P-450 inhibition, CYP 3A4; conditions: panel of human cytochrome P-450 enzymes

## Cc1ccn2c(C(=O)NCc3ccc(Oc4ccc(F)cc4)cc3)c(C)nc2c1 [Compound 18]
Mtb H37Rv
  MIC: < 0.005 µM
[1]
  MIC: < 0.01 µg/mL
[2]
  MIC: < 0.01 µg/mL
MDR-Mtb HREZSKP
  MIC: 0.03 µM to 0.8 µM and 0.01 µg/mL to 0.3 µg/mL
MDR-Mtb HREKP
  MIC: < 0.01 µg/mL
MDR-Mtb HRERb
  MIC: 0.31 µg/mL (≈ 0.796 µM)
XDR-Mtb HRESKO
  MIC: < 0.01 µg/mL
XDR-Mtb HREKO
  MIC: < 0.01 µg/mL
[3]
  MIC range against the clinical strains: <0.03 to 0.8 µM
CYP3A4 [4]
  time dependent inhibition of human CYP3A4: time dependent inhibitors

## O=[N+]([O-])c1cn2c(n1)OC[C@@H](OCc1ccc(OC(F)(F)F)cc1)C2 [PA-824, reference compound]
[1]
  MIC: 0.5 µM to 0.9 µM and 0.2 µg/mL to 0.3 µg/mL
[2]
  MIC: > 5 µg/mL
MDR-Mtb HREZSKP
  MIC: 0.5 µM to 0.9 µM and 0.2 µg/mL to 0.3 µg/mL
MDR-Mtb HREKP
  MIC: 0.5 µM to 0.9 µM and 0.2 µg/mL to 0.3 µg/mL
MDR-Mtb HRERb
  MIC: 0.5 µM to 0.9 µM and 0.2 µg/mL to 0.3 µg/mL
XDR-Mtb HRESKO
  MIC: 0.3 µg/mL (≈ 0.835 µM)
XDR-Mtb HREKO
  MIC: 0.08 µg/mL (≈ 0.223 µM)

## Cc1ccn2c(C(=O)NCc3ncc(C(F)(F)F)cc3Cl)c(C)nc2c1 [Compound 13]
[1]
  MIC: 0.3 µg/mL (≈ 0.784 µM)
[2]
  MIC: 0.3 µg/mL (≈ 0.784 µM)
MDR-Mtb HREZSKP
  MIC: 2.5 µg/mL (≈ 6.53 µM)
MDR-Mtb HREKP
  MIC: 0.2 µg/mL (≈ 0.523 µM)
MDR-Mtb HRERb
  MIC: 13 µM to 26 µM and 5 µg/mL to 10 µg/mL
XDR-Mtb HRESKO
  MIC: 0.3 µg/mL (≈ 0.784 µM)
XDR-Mtb HREKO
  MIC: 0.3 µg/mL (≈ 0.784 µM)
In vivo
  clearance: 25 mL/min/kg
In vitro
  fraction unbound: 0.089
[5]
  % metabolized: 19%
CYP3A4 [4]
  time dependent inhibition of human CYP3A4: time dependent inhibitors
CYP3A4 [6]
  inhibition at 10 µM: 0%

## Cc1ccc2nc(C)c(C(=O)NCc3ccccc3)n2c1 [Compound 9]
[1]
  MIC: 0.04 µM to 0.07 µM and 0.01 µg/mL to 0.02 µg/mL
[2]
  MIC: < 0.01 µg/mL
MDR-Mtb HREZSKP
  MIC: < 0.01 µg/mL
MDR-Mtb HREKP
  MIC: < 0.01 µg/mL
MDR-Mtb HRERb
  MIC: 0.63 µg/mL (≈ 2.26 µM)
XDR-Mtb HRESKO
  MIC: < 0.01 µg/mL
XDR-Mtb HREKO
  MIC: < 0.01 µg/mL
